According to the kinase profiling compilation of Christmann-Franck et al. (2016):

How the values were obtained:
Assay in all cases: radiometric filter-binding kinase assay
MAPK9 (human) = MAPK9 (human) (UniProt P45984)
SRC (human) = SRC (human) (UniProt P12931)
MAPK10 (human) = MAPK10 (human) (UniProt P53779)
MAP3K1 (human) = MAP3K1 (human) (UniProt Q13233)
GCK (human) = GCK (human) (UniProt Q12851)
[1] = biological target: STK11 CAB39 STRADA (human) (UniProt Q9Y376+Q7RTN6+Q15831)
MKNK1 (human) = MKNK1 (human) (UniProt Q9BUB5)
MKNK1 (human), sequence (Q9BUB5 whole entry, looked up): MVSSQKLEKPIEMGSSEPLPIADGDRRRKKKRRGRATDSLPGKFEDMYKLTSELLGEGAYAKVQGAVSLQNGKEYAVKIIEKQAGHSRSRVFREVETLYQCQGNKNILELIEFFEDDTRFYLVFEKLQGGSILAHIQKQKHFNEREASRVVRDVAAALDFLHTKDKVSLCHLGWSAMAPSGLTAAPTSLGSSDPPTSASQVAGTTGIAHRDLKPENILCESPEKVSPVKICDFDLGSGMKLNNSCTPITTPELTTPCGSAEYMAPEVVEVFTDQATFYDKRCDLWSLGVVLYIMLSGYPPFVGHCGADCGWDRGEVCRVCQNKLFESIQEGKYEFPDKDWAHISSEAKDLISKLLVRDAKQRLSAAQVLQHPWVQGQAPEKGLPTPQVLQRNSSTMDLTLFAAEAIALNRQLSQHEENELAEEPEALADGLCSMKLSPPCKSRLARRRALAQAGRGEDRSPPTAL

MAPK15 (human) = MAPK15 (human) (UniProt Q8TD08)
MAPK15 (human), sequence (Q8TD08 whole entry, looked up): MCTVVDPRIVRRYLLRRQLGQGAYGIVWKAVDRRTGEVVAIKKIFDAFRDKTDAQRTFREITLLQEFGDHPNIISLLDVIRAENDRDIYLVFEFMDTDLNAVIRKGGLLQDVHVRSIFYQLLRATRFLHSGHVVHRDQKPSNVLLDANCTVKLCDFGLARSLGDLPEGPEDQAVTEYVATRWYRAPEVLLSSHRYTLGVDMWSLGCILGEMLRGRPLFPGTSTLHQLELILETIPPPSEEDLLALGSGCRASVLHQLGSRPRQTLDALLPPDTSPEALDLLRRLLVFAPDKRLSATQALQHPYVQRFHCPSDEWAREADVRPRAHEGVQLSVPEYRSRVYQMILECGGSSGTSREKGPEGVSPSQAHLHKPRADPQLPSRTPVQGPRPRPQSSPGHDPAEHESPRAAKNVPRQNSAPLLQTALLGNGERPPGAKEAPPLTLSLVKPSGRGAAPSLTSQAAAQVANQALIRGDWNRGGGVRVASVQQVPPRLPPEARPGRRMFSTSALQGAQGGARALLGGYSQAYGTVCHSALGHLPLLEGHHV

CHEK2 (human) = CHEK2 (human) (UniProt O96017)
PIM2 (human) = PIM2 (human) (UniProt Q9P1W9)
CAMKK2 (human) = CAMKK2 (human) (UniProt Q96RR4)
PKN2 (human) = PKN2 (human) (UniProt Q16513); conditions: compound 0.01 µM
PRKAA1 or PRKAA2 (rat) = conditions: accession and sequence are those of the human protein
IKBKB (human) = IKBKB (human) (UniProt O14920)
IKBKB (human), sequence (O14920 whole entry, looked up): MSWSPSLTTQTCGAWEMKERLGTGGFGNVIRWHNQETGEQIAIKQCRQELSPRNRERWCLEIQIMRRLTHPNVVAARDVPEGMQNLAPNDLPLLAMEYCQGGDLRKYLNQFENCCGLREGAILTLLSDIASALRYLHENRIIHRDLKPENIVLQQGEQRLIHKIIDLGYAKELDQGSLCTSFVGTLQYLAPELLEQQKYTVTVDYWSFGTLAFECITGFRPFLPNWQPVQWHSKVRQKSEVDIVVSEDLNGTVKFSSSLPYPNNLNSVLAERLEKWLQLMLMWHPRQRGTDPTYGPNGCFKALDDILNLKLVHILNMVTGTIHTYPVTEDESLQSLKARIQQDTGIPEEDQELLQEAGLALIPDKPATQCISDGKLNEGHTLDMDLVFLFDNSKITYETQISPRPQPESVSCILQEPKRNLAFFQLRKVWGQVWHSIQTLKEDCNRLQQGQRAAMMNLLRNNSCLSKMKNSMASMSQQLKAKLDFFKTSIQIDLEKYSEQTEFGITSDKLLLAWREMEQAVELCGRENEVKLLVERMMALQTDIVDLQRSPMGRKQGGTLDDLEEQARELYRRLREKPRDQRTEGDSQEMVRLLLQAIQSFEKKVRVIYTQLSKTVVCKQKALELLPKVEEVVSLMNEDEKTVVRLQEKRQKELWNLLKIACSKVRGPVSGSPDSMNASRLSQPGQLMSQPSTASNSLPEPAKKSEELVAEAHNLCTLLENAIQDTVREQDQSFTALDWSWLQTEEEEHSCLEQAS

YES1 (human) = YES1 (human) (UniProt P07947)
RPS6KA1 KD1 KD2 (human) = RPS6KA1 KD1 KD2 (human) (UniProt Q15418)
MAPK3 (human) = MAPK3 (human) (UniProt P27361)
MAP3K5 (human) = MAP3K5 (human) (UniProt Q99683)
NEK2 (human) = NEK2 (human) (UniProt P51955)
MAPK1 (human) = MAPK1 (human) (UniProt P28482)
CHEK1 (human) = CHEK1 (human) (UniProt O14757)
MKNK2 (human) = MKNK2 (human) (UniProt Q9HBH9)
MKNK2 (human), sequence (Q9HBH9 whole entry, looked up): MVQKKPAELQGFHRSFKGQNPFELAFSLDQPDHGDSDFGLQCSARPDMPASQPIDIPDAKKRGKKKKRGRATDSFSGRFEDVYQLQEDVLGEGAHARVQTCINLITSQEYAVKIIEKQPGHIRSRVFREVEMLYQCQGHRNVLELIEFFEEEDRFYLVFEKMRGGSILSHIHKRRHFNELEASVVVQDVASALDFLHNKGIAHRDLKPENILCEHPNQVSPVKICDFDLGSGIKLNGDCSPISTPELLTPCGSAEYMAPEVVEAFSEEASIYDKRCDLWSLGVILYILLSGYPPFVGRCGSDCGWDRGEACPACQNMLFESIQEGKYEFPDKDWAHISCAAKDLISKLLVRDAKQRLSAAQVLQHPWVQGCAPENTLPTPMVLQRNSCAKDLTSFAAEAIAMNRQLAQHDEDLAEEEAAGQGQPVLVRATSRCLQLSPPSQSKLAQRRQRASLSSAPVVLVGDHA

AURKB (human) = AURKB (human) (UniProt Q96GD4)
IGF1R (human) = IGF1R (human) (UniProt P08069)
MINK1 (human) = MINK1 (human) (UniProt Q8N4C8)
MAPKAPK2 (human) = MAPKAPK2 (human) (UniProt P49137)
MARK2 (human) = MARK2 (human) (UniProt Q7KZI7)
MARK2 (human), sequence (Q7KZI7 whole entry, looked up): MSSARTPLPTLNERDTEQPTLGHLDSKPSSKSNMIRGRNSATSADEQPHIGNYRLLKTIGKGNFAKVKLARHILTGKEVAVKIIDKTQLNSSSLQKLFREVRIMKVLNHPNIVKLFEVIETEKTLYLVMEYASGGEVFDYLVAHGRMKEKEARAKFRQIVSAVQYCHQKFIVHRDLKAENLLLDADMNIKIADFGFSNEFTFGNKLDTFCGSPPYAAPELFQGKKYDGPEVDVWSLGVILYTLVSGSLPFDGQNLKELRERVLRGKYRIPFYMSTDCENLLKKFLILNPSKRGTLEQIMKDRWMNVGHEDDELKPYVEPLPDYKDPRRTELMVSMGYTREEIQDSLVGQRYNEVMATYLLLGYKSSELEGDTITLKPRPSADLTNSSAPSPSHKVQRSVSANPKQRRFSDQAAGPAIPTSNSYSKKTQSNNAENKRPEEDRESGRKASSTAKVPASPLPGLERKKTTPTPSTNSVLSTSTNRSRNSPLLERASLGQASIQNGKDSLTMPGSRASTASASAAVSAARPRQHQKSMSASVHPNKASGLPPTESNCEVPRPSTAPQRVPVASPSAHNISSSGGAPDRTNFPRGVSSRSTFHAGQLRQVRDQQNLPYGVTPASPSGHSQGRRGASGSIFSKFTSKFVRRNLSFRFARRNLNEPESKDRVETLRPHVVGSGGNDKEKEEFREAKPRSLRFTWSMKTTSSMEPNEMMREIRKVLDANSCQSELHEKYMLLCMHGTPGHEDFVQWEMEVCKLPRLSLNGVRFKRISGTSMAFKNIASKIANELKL

STK3 (human) = STK3 (human) (UniProt Q13188)
NTRK1 (human) = NTRK1 (human) (UniProt P04629)
NTRK1 (human), sequence (P04629 whole entry, looked up): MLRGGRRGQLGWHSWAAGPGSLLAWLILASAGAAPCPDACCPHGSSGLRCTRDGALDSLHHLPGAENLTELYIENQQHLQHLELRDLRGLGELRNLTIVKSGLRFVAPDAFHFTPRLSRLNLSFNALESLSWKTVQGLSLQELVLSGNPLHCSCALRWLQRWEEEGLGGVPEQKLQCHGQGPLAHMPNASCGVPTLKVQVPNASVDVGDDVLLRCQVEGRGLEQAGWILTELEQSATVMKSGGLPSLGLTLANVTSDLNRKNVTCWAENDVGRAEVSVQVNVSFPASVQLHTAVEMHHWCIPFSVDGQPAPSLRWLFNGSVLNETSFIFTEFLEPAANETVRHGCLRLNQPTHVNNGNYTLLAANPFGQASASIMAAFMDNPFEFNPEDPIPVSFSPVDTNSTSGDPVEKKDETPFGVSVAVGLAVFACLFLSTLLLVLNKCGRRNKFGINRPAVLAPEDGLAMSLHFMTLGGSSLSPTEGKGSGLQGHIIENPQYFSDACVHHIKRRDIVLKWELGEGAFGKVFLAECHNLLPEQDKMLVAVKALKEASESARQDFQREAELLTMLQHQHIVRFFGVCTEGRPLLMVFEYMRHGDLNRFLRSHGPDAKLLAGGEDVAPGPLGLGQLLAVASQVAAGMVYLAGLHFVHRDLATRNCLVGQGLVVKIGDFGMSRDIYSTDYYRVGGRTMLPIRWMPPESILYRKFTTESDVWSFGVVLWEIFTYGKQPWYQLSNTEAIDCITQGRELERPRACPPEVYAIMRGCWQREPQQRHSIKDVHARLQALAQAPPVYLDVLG

EPHB4 (human) = EPHB4 (human) (UniProt P54760)
[2] = system: AKT2 (human), P31751 [S474D]
PRKCA (human) = PRKCA (human) (UniProt P17252)
PHKG1 (human) = PHKG1 (human) (UniProt Q16816)
PRKACA (human) = PRKACA (human) (UniProt P17612)
MAP2K1 (human) = MAP2K1 (human) (UniProt Q02750)

MAPK10 (human), sequence (P53779 whole entry, looked up): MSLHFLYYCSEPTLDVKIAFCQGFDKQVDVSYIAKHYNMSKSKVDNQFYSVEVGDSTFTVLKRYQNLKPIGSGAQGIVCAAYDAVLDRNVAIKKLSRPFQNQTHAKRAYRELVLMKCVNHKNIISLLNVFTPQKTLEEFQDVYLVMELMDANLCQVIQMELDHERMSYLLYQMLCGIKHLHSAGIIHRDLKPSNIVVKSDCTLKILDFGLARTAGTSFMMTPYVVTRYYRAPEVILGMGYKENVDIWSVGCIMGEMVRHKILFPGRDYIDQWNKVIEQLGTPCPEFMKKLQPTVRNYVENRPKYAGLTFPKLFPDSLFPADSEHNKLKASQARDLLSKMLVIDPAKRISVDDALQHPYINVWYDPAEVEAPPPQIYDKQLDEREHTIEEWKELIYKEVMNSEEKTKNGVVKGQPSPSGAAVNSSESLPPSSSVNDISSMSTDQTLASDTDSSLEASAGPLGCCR

## COc1cc(O)c2c(c1)[C@H]1OC1C[C@H](O)[C@H](O)C(=O)/C=C\C[C@H](C)OC2=O (some centres undefined)
MAPK9 (human); compound 0.01 µM
  residual activity: 105%
MAPK9 (human); compound 0.1 µM
  residual activity: 106%
MAPK9 (human); compound 1.0 µM
  residual activity: 99%
SRC (human); compound 0.01 µM
  residual activity: 96%
SRC (human); compound 0.1 µM
  residual activity: 91%
SRC (human); compound 1.0 µM
  residual activity: 86%
MAPK10 (human); compound 0.01 µM
  residual activity: 89%
MAPK10 (human); compound 0.1 µM
  residual activity: 101%
MAPK10 (human); compound 1.0 µM
  residual activity: 107%
MAP3K1 (human); compound 0.01 µM
  residual activity: 112%
MAP3K1 (human); compound 0.1 µM
  residual activity: 101%
MAP3K1 (human); compound 1.0 µM
  residual activity: 102%
GCK (human); compound 0.01 µM
  residual activity: 114%
GCK (human); compound 0.1 µM
  residual activity: 105%
GCK (human); compound 1.0 µM
  residual activity: 97%
[1]; compound 0.01 µM
  residual activity: 119%
[1]; compound 0.1 µM
  residual activity: 120%
[1]; compound 1.0 µM
  residual activity: 104%
MKNK1 (human); compound 0.01 µM
  residual activity: 100%
MKNK1 (human); compound 0.1 µM
  residual activity: 87%
MKNK1 (human); compound 1.0 µM
  residual activity: 55%
MAPK15 (human); compound 0.01 µM
  residual activity: 80%
MAPK15 (human); compound 0.1 µM
  residual activity: 27%
MAPK15 (human); compound 1.0 µM
  residual activity: 11%
CHEK2 (human); compound 0.01 µM
  residual activity: 91%
CHEK2 (human); compound 0.1 µM
  residual activity: 91%
PIM2 (human); compound 0.01 µM
  residual activity: 93%
PIM2 (human); compound 0.1 µM
  residual activity: 114%
CAMKK2 (human); compound 0.01 µM
  residual activity: 102%
CAMKK2 (human); compound 0.1 µM
  residual activity: 99%
PKN2 (human)
  residual activity: 93%
PRKAA1 or PRKAA2 (rat); compound 0.01 µM
  residual activity: 105%
PRKAA1 or PRKAA2 (rat); compound 0.1 µM
  residual activity: 105%
PRKAA1 or PRKAA2 (rat); compound 1.0 µM
  residual activity: 94%
IKBKB (human); compound 0.01 µM
  residual activity: 103%
IKBKB (human); compound 0.1 µM
  residual activity: 100%
IKBKB (human); compound 1.0 µM
  residual activity: 112%
YES1 (human); compound 0.01 µM
  residual activity: 87%
YES1 (human); compound 0.1 µM
  residual activity: 85%
RPS6KA1 KD1 KD2 (human); compound 0.1 µM
  residual activity: 92%
RPS6KA1 KD1 KD2 (human); compound 1.0 µM
  residual activity: 85%
MAPK3 (human); compound 0.01 µM
  residual activity: 111%
MAPK3 (human); compound 0.1 µM
  residual activity: 102%
MAPK3 (human); compound 1.0 µM
  residual activity: 57%
MAP3K5 (human); compound 0.01 µM
  residual activity: 105%
MAP3K5 (human); compound 0.1 µM
  residual activity: 103%
MAP3K5 (human); compound 1.0 µM
  residual activity: 109%
NEK2 (human); compound 0.01 µM
  residual activity: 103%
NEK2 (human); compound 0.1 µM
  residual activity: 127%
NEK2 (human); compound 1.0 µM
  residual activity: 105%
MAPK1 (human); compound 0.01 µM
  residual activity: 96%
MAPK1 (human); compound 0.1 µM
  residual activity: 87%
MAPK1 (human); compound 1.0 µM
  residual activity: 36%
CHEK1 (human); compound 0.01 µM
  residual activity: 93%
CHEK1 (human); compound 0.1 µM
  residual activity: 93%
CHEK1 (human); compound 1.0 µM
  residual activity: 94%
MKNK2 (human); compound 0.01 µM
  residual activity: 91%
MKNK2 (human); compound 0.1 µM
  residual activity: 62%
MKNK2 (human); compound 1.0 µM
  residual activity: 44%
AURKB (human); compound 0.01 µM
  residual activity: 90%
AURKB (human); compound 0.1 µM
  residual activity: 92%
AURKB (human); compound 1.0 µM
  residual activity: 107%
IGF1R (human); compound 0.01 µM
  residual activity: 103%
IGF1R (human); compound 0.1 µM
  residual activity: 100%
MINK1 (human); compound 0.01 µM
  residual activity: 106%
MINK1 (human); compound 0.1 µM
  residual activity: 111%
MINK1 (human); compound 1.0 µM
  residual activity: 102%
MAPKAPK2 (human); compound 0.01 µM
  residual activity: 93%
MAPKAPK2 (human); compound 0.1 µM
  residual activity: 101%
MARK2 (human); compound 0.01 µM
  residual activity: 90%
MARK2 (human); compound 0.1 µM
  residual activity: 100%
MARK2 (human); compound 1.0 µM
  residual activity: 100%
STK3 (human); compound 0.01 µM
  residual activity: 97%
STK3 (human); compound 0.1 µM
  residual activity: 89%
STK3 (human); compound 1.0 µM
  residual activity: 102%
NTRK1 (human); compound 0.01 µM
  residual activity: 97%
NTRK1 (human); compound 0.1 µM
  residual activity: 90%
NTRK1 (human); compound 1.0 µM
  residual activity: 67%
EPHB4 (human); compound 0.01 µM
  residual activity: 109%
EPHB4 (human); compound 0.1 µM
  residual activity: 116%
[2]; compound 0.01 µM
  residual activity: 105%
[2]; compound 0.1 µM
  residual activity: 103%
PRKCA (human); compound 0.01 µM
  residual activity: 88%
PRKCA (human); compound 0.1 µM
  residual activity: 88%
PRKCA (human); compound 1.0 µM
  residual activity: 92%
PHKG1 (human); compound 0.01 µM
  residual activity: 100%
PHKG1 (human); compound 0.1 µM
  residual activity: 98%
PHKG1 (human); compound 1.0 µM
  residual activity: 107%
PRKACA (human); compound 0.01 µM
  residual activity: 91%
PRKACA (human); compound 0.1 µM
  residual activity: 99%
PRKACA (human); compound 1.0 µM
  residual activity: 100%
MAP2K1 (human); compound 0.01 µM
  residual activity: 101%
MAP2K1 (human); compound 0.1 µM
  residual activity: 21%
MAP2K1 (human); compound 1.0 µM
  residual activity: 1%
